How the values were obtained:
[1] = pH dependent hydrolysis of the hydrazone bond followed by MALDI-TOF-MS; format: physicochemical; details: HCl solution at pH 3; MALDI-TOF-MS at two points in time
[2] = system: HeLa cells; assay: Cell viability assay (MTS): co-administration with SO1861 and dianthin-EGF, inhibition of SO1861-mediated endosomal escape; format: cell-based, human; details: 500 nM test substance + SO1861 concentration curve + […] dianthin-EGF, 72 hr
Method: HeLa cells were seeded in DMEM (PAN-Biotech GmbH) supplemented with 10% fetal bovine serum (PAN-Biotech GmbH) and 1% penicillin/streptomycin (PAN-Biotech GmbH), in a 96 well plate at 5,000 c/w in 100 μL/well and incubated overnight at 37° C. and 5% CO2. The next day 20× concentrated stocks of the PAMAM, PAMAM-conjugates, G4-dendron (prepared in Example 3) or chloroquine (Sigma Aldrich) samples were prepared in DMEM. The media was removed from the cell culture plate and replaced by […] culture media, followed by the addition of 10 μL sample/well (from the 20× concentrated stocks) and a 45 min incubation at 37° C. […] Followed by 15 sec sonication and a brief re-heating at 50° C. for 1 min, while shaking at 1,250 rpm. Subsequently a serial dilution of SO1861 was prepared in PBS.
As control for the inhibition of endosomal acidification chloroquine was used.

[3] = system: breast cancer; details: preclinical models of breast cancer; cited from earlier work

Compound: CC(=O)OC1C(C)OC(OC2C(C)OC(OC(=O)[C@]34CCC(C)(C)CC3C3=CCC5[C@@]6(C)CC[C@H](OC7OC(C(=O)O)C(O)C(OC8OCC(O)C(O)C8O)C7OC7OC(CO)C(O)C(O)C7O)[C@@](C)(/C=N/NC(=O)CCCCCN7C(=O)C=CC7=O)C6CC[C@@]5(C)[C@]3(C)C[C@H]4O)C(OC3OC(C)C(OC4OCC(O)C(OC5OC(CO)C(O)C(O)C5O)C4O)C(O)C3O)C2O)C(O)C1OC1OCC(O)C(O)C1O (stereo partly drawn) [SO1861-EMCH]
- hydrolysis of the hydrazone bond [1]: the hydrazone bond is responsive towards hydrolysis and gets cleaved

Compound: CCN(CC)CCCC(C)Nc1ccnc2cc(Cl)ccc12 (stereo not drawn) [chloroquine]
- inhibition of SO1861-mediated endosomal escape of the targeted toxin and subsequent cell killing [2]: inhibit the SO1861-mediated endosomal escape of the targeted toxin and subsequent cell killing

Compound: ado-trastuzumab emtansine
- dose levels inducing tumor regression [3]: ≥ 3 mg/kg

— US20220023433A1, “Saponin Conjugates” (Sapreme Technologies B.V., priority 2018, published 2022)
